Entries after “also recorded” stand apart in the source; their conditions may differ.
How the values were obtained:
Assay type in all cases: cell-based
rat I7 odorant receptor [1] = biological target: T1, rat I7 odorant receptor (Rattus norvegicus, UniProt P23270); assay: Electro-olfactogram (EOG) recording from AdexCAG-I7-IRES-GFP infected rat olfactory epithelium; settings: for change of EOG odorant response in I7 virus infected vs uninfected animals: responses normalized to amyl acetate, panel of 74 odorants
T1 construct: expressed in transfected cells; host or cells: rat (Sprague-Dawley) olfactory sensory neurons infected in vivo with recombinant adenovirus AdexCAG-I7-IRES-GFP
T1 sequence (P23270 1-327): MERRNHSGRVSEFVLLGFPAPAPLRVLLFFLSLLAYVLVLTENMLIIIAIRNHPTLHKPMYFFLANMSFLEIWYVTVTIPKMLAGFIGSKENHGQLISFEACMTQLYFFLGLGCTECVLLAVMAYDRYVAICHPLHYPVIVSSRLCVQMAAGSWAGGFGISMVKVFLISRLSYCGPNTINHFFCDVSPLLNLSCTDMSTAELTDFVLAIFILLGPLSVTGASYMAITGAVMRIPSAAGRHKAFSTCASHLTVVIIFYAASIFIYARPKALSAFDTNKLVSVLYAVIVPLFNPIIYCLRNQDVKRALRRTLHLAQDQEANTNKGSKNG
Method: Rats (Sprague-Dawley) of various ages and both sexes were used for these experiments. Under anesthesia (ketamine, 90 mg/kg and xylazine, 10 mg/kg, i.p.), 30 μl of rat Ringer solution (in mM, 135, NaCl; 5, I(Cl; 1, CaCl2; 4, MgCl2; 10, HEPES; pH 7.4) containing the AdexCAG-I7-IRES-GFP at a titer of 3×10^9 pfu/ml, and 0.3% fast green dye was slowly injected through the nostril into the right side of the nasal cavity with a short length of thin plastic tubing. The solution was allowed to remain in the nasal cavity. After recovery, the animals were maintained at room temperature with no other treatment until sacrificed.
(§1) The animal was overdosed with anesthetics (Ketamine and xylazine) and decapitated. The head was cut open sagittally and the septum was removed to expose the medial surface of the olfactory turbinates (44 this reference is hereby incorporated by reference in its entirety). The right half of the head was mounted in a wax dish filled with rat Ringer. The medial surface of turbinates was face up and exposed to the air. A continuous stream of humidified clean air was gently blown on the turbinates through tubing to prevent tissue from drying. The opening of the tubing was 8 mm in diameter and placed approximately 10 mm from the turbinate surface.
Odorant solutions were prepared by diluting a 0.5 M stock in DMSO with water. All odorant chemicals were purchased from Aldrich, except Lyral and Lilial which were the kind gift of IFF and Harmon & Reimer Inc. Three milliliters of the odorant solution were placed in a 10 ml glass test tube and capped with a silicon stopper. The concentration of volatile odorant in the 7 cc airspace was allowed to equilibrate for more than 1 hour. All solutions were used within 8 hours. Two 18 gauge needles provided the input and output ports for the odorant containing vapor above the solution. For stimulation a 100 ms pulse of the odorant vapor at 9 psi was injected into the continuous stream of humidified air. The pulse was controlled by a Picospritzer solenoid controlled valve (General Valve). Amyl acetate was used as the reference odorant to control for the variability in responses between animals and during long recording sessions, and was delivered on every sixth trial of odorant stimulation. Three tubes of amyl acetate at 10^−3 M liquid concentration were used alternately in each experiment. The odorant stimulus pathway was cleaned by air between each stimulus presentation. The minimum interval between two adjacent stimuli was 1 minute.
The EOG recording electrode was an Ag/AgCl wire in a capillary glass pipette filled with rat Ringer solution containing 0.6% agarose. The electrode resistance was between 0.5 and 1 MΩ. The recording pipette was placed on the surface of the olfactory epithelium and connected to a differential amplifier (DP-301, Warner Instrument). Placement of the electrode was determined by visualizing GFP fluorescence with a modified stereomicroscope (Kramer Scientific). The EOG potential was observed on a chart recorder, recorded with a DAT tape recorder, and later transferred to computer. For most experiments two electrodes and two amplifiers were used to record EOGs from two different sites of epithelium simultaneously. All experiments were performed at room temperature (22-25° C.).
Odorants were prepared and applied in the following manner. Three milliliters of each odorant solution at a particular concentration were placed in a 10 ml test tube stoppered with a silicone cap, and left for one hour to allow the concentration of volatile odorant in the 7 cc airspace above the solution to equilibrate. Most of the odorants were prepared at a liquid concentration of 10^−2 M to 10^−3 M depending on their relative volatilities. Concentrations of stimulus produced at the olfactory epithelium could not be known, but the system reliably delivered the same amount of stimulus on each trial as there was little variability between responses to successive pulses of the same odorant. […]

rat olfactory epithelium = assay: EOG recording from control rat olfactory epithelium (uninfected or infected with GFP-only adenovirus)
Text: as §1
Odorant solutions were prepared by diluting a 0.5 M stock in DMSO with water. All odorant chemicals were purchased from Aldrich, except Lyral and Lilial which were the kind gift of IFF and Harmon & Reimer Inc. Three milliliters of the odorant solution were placed in a 10 ml glass test tube and capped with a silicon stopper. […]
The EOG recording electrode was an Ag/AgCl wire in a capillary glass pipette filled with rat Ringer solution containing 0.6% agarose. […] Placement of the electrode was determined by visualizing GFP fluorescence with a modified stereomicroscope (Kramer Scientific). The EOG potential was observed on a chart recorder, recorded with a DAT tape recorder, and later transferred to computer. […]

rat I7 odorant receptor [2] = biological target: T1, rat I7 odorant receptor; assay: Whole-cell patch clamp recording from isolated GFP positive olfactory neurons infected by AdexCAG-I7-IRES-GFP
Method: Whole-cell patch clamp recording was performed on isolated cells with detectable fluorescence (FITC filter). Cell dissociation techniques for olfactory epithelium are described in detail elsewhere (45 this reference is hereby incorporated by reference in its entirety); for these experiments we included only papain treatment and mechanical disruption. Recordings were made with the Axopatch 1D amplifier. […] Data were acquired with the PULSE software (HEKA). Odorants were applied by a constant stream perfusion device (SF77, Warner Instruments) or by pressure pulse. The extracellular solution was the rat Ringer described above. All cells were tested to confirm that they had the normal voltage gated currents before investigating their odorant responses.
The holding potential was −60 mV. The currents varied from 60-250 pA in response to a 50 msec pulse of octanal at approximately 10−4 M, values that are within the range previously reported for rat olfactory neurons (28). […] The odorant induced current reversed around 0 mV.

In the case of CCCCCCCCCC=O [decyl aldehyde], the “change of EOG odorant response in I7 virus infected vs uninfected animals” value (“change of EOG odorant response” for short) (rat I7 odorant receptor [1]) was “increased odorant response”.

With CCCCCCC=O [heptaldehyde] the “change of EOG odorant response” value (rat I7 odorant receptor [1]) was “increased odorant response”.

In the case of CCCCCC=O [hexaldehyde], the “change of EOG odorant response” value (rat I7 odorant receptor [1]) was “not”.

CCCCCCCCC=O [nonyl aldehyde] was tested, and the “change of EOG odorant response” value (rat I7 odorant receptor [1]) was “increased odorant response”.

With CCCCCCCC=O [octyl aldehyde] the “EOG response in animals infected with adenovirus containing only the GFP gene” value (rat olfactory epithelium; GFP-only adenovirus, same CAG promoter, compared with uninfected animals) was “not different from uninfected animals”, the “response ratio of octyl aldehyde to amyl acetate” value (rat olfactory epithelium; normal (uninfected) animals, 5×10^−5 M in solution) was 1 and the “difference in response magnitude (octyl aldehyde compared to amyl acetate) in infected versus control epithelia” value (rat I7 odorant receptor [1]; dose-response at various concentrations, FIG. 5c) was ≤ 7 fold. The “relative EOG amplitude after moving electrode from high fluorescence to regions with little or no GFP expression” value (rat I7 odorant receptor [1]; infected animals) was “significantly reduced”, the “response ratio of octyl aldehyde to amyl acetate” value (rat I7 odorant receptor [1]; infected animals, odorant concentration in solution 5×10^−5 M) was 7 times and the “EOG response in animals with lower infection rates” value (rat I7 odorant receptor [1]; infection judged by extent of GFP fluorescence) was “comparably smaller”. For the same molecule, the “average EOG response in infected vs. uninfected animals” value (rat I7 odorant receptor [1]; normalized to amyl acetate, comparatively high odorant concentrations near saturation) was 1.7 times, the “change of EOG odorant response” value (rat I7 odorant receptor [1]) was “dramatically greater; also recorded: increased odorant response” and the “reversal potential of odorant induced current” value (rat I7 odorant receptor [2]) was “around 0 mV”. For the same molecule, the “latency of odorant induced current” value (rat I7 odorant receptor [2]; 50 msec pulse at approximately 10−4 M) was 100 to 250 ms, the odorant induced current (rat I7 odorant receptor [2]; 50 msec pulse at approximately 10−4 M, holding potential −60 mV) was 60-250 pA and the “cells with odorant induced current” value (rat I7 odorant receptor [2]; isolated GFP positive neurons) was 5 of 5.

With CCCCC/C=C/C=O [trans-2-octenal] the “change of EOG odorant response” value (rat I7 odorant receptor [1]) was “failed to elicit responses larger than in normal animals”.

For CCCCCCCCCCC=O [undecylic aldehyde], the “change of EOG odorant response” value (rat I7 odorant receptor [1]) was “not”.

Reference: US20020176820A1, “Functional expression of, and assay for, functional cellular receptors in vivo” (The Trustees of Columbia University, priority 1997, published 2002)
